Data on 60 compounds can be found in PubChem BioAssay AID1888 (NMMLSC, 2009).

The term EC50 denotes the midpoint of the concentration-response curve. As a reminder, the Ki is a dissociation constant, usually derived from enzyme kinetics or from competition with a known ligand.

Activity calls are given as the source filed them. The rule behind the calls is not given here.

One assay deals with Regulator of G-protein signaling 16 (Homo sapiens) (UniProt O15492). Nature of the assay: RGS16-Galphao interaction modulators, dose response, biochemical, bead-based flow cytometry, multiplex (AID 1888). The settings on record: RGS16-Galphao binding.
Chain of Regulator of G-protein signaling 16 (Homo sapiens) (O15492 whole entry, looked up): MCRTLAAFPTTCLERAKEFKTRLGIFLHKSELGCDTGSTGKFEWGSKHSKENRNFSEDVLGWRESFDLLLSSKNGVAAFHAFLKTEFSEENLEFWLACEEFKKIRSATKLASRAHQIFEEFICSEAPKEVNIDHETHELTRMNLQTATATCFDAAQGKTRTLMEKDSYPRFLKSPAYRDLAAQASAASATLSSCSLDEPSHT
Consider `CCOC(=O)/C(C(=O)Nc1ccccc1Cl)=C1/NC(C)(C)Cc2ccccc21`, for which the EC50 result was “inactive”. Still for that read-out and setting: then `NS(=O)(=O)c1ccc(N/N=C/c2ccc(O)c(O)c2O)c([N+](=O)[O-])c1`, with 1.66 µM; and `O=c1[nH]c(=S)n(Cc2ccco2)c(O)c1C=NCc1cccs1`, with > 30 µM (inactive); and `O=C1CCCC2=C1C(c1cccs1)n1ncnc1N2` (configuration not stated), with > 30 µM (inactive). On the same count and under the same terms, for `CN(C)[C@@H]1C(=O)C(C(=O)NCN2CCCC2)=C(O)[C@@]2(O)C(=O)C3=C(O)c4c(O)cccc4[C@@](C)(O)C3CC12` (some centres not stated) the value was 7.31 µM; for `COc1ccc(Br)cc1/C=N/Nc1cccc(C(=O)O)c1`, > 30 µM (inactive). The same measure, in the same setting: for `CCOC(=O)N=Nc1c(O)n(C)c2ccccc12` the value was > 30 µM (inactive). In the case of `CCOC(=O)C1=C(C)NC(C)=C(C(=O)OCCNC(=O)c2cccnc2)C1c1cccc([N+](=O)[O-])c1` (configuration not stated), the EC50 was > 30 µM (inactive). Same read-out and setting: then `CC(C)Sc1nc2ccc(N3C(=O)C4CCCCC4C3=O)cc2s1` (configuration not stated), with > 30 µM (inactive).

Still in this assay, the particulars now being: RGS16-Galphao binding, measured here: Ki for RGS16-Galphao binding.
In turn, `CCN(CC)S(=O)(=O)c1cccc(C(=O)N/N=C/c2ccc(O)c(O)c2O)c1` registered an inhibition constant (Ki) of 4.14 µM.

`CCOC(=O)c1sc(NC(=O)CSc2nnc(Cc3ccccc3)o2)c(C#N)c1C` registered a Ki of 10.9 µM. Still for that read-out and setting: then `O=C(OCC1O[C@@H](OC(=O)c2cc(O)c(O)c(O)c2)[C@@H](OC(=O)c2cc(O)c(O)c(O)c2)[C@@H](OC(=O)c2cc(O)c(O)c(O)c2)[C@@H]1OC(=O)c1cc(O)c(O)c(O)c1)c1cc(O)c(O)c(O)c1` (some centres not stated), with 4.68 µM. Same read-out and setting: then `NS(=O)(=O)c1ccc(N/N=C/c2ccc(O)c(O)c2O)c([N+](=O)[O-])c1`, with 1.35 µM; and `O=c1c2ccccc2sn1-c1cc(S(=O)(=O)N2CCOCC2)ccc1N1CCCC1`, with 1.83 µM; and `CCN1/C(=C/C=C/C=C/c2sc3ccccc3[n+]2CC)Sc2ccccc21`, with 5.41 µM. On the same count and under the same terms, then `O=C(Cc1csc(N2CCOCC2)n1)N/N=C/c1ccc(O)c(O)c1O`, with 9.08 µM; and `C/C(=N/NC(=O)c1cc(O)c(O)c(O)c1)c1ccc([N+](=O)[O-])cc1`, with 15.8 µM. Consider `Cc1cc(C)c2c(=O)n(CC(=O)Nc3ccc(Cl)cc3)sc2n1`, for which the Ki was 1.42 µM. On the same count and under the same terms, then `NS(=O)(=O)c1ccc(CNC(=O)/C=C/c2ccco2)cc1`, with 6.22 µM; and `Cc1cccc(N2CCN(C(=O)Cn3sc4nc(C)cc(C)c4c3=O)CC2C)c1` (configuration not stated), with 1.05 µM; and `O=c1c2ccccc2sn1-c1ccc(S(=O)(=O)N2CCCC2)cc1`, with 1.94 µM. `CN1CCN(C2=C(Cl)C(=O)C(c3cnc(N4CCCCC4)s3)=C(Cl)C2=O)CC1` displayed a Ki of 0.15 µM. The same measure, in the same setting: for `O=C(NCCCN1CCOCC1)c1sc2cc([N+](=O)[O-])ccc2c1Cl` the value was 0.77 µM. `Cc1ccccc1-n1c(-c2ccncc2)n[nH]c1=S` gave a Ki of 6.29 µM. Still for that read-out and setting: for `Cc1cc(C)c2c(=O)n(CC(=O)Nc3cccc(F)c3)sc2n1` the value was 1.39 µM; for `Nc1c(C(=O)NCC2CCCO2)sc2nc3c(c(-c4ccco4)c12)CC/C3=C\c1ccco1` (configuration not stated), 2.21 µM. The same measure, in the same setting: then `O=C1OCC2OC(O)C(O)C(O)C2OC(=O)c2cc(O)c(O)c(O)c2-c2c(O)c(O)c3oc(=O)c4c(c(O)c(O)c5oc(=O)c2c3c54)-c2c1cc(O)c(O)c2O` (configuration not stated), with 13.4 µM; and `COC(=O)CCC(=O)Nc1sc(C)c(C)c1C(N)=O`, with 5.32 µM. Still for that read-out and setting: then `CCNc1ccc2noc3c2c1C(=O)c1ccccc1-3`, with 23.7 µM; and `O=c1c2ccccc2sn1-c1cc(S(=O)(=O)N2CCOCC2)ccc1N1CCOCC1`, with 0.56 µM; and `CCOC(=O)C1CCCN(C(=O)Cn2sc3nc(C)cc(C)c3c2=O)C1` (configuration not stated), with 1.53 µM.

Take `CN(C)[C@@H]1C(=O)C(C(=O)NCN2CCCC2)=C(O)[C@@]2(O)C(=O)C3=C(O)c4c(O)cccc4[C@@](C)(O)C3CC12` (some centres not stated): the inhibition constant (Ki) turned out to be 5.93 µM. For the compound `CC1(C)OC(=O)C(=Cc2ccc(-c3ccc(S(N)(=O)=O)cc3)o2)C(=O)O1`, the Ki came out at 9.64 µM. The same measure, in the same setting: then `O=C1C(Cl)=C(N2CCCCC2)C(=O)C(Cl)=C1c1cnc(N2CCCCC2)s1`, with 1.34 µM. `O=C(O[C@@H]1OC2COC(=O)c3cc(O)c(O)c(O)c3-c3c(cc(O)c(O)c3O)C(=O)O[C@@H]([C@H]1O)[C@@H]2O)c1cc(O)c(O)c(O)c1` returned a Ki of 5.42 µM. Same read-out and setting: then `CCOc1ccccc1-c1c2cc(O)c(=O)cc-2oc2cc(O)c(O)cc12`, with 11.3 µM; and `CC(=O)N1CC[n+]2c(-c3ccc([N+](=O)[O-])cc3)csc21`, with 11 µM. On the same count and under the same terms, for `CCC(=O)NC(c1ccc(C)cc1)c1cc([N+](=O)[O-])c2cccnc2c1O` (configuration not stated) the value was 9.46 µM.

Take `Cc1[nH]n(-c2ccccc2)c(=S)c1C=Nc1cccc([N+](=O)[O-])c1`: the Ki was 1.29 µM.

`Cc1cc(Cl)ccc1N=c1ssnc1Cl` had a Ki of 7.19 µM. The same measure, in the same setting: for `CC(NC(=O)c1sc2cc([N+](=O)[O-])ccc2c1Cl)C(C)(C)C` (configuration not stated) the value was 2 µM; for `CC(=O)N(O)CCCCCNC(=O)CCC(=O)N(O)CCCCCNC(=O)CCC(=O)N(O)CCCCCN`, 1.5 µM; for `Cc1[nH]n(-c2ccccc2)c(=S)c1C=NCCCN=Cc1c(C)[nH]n(-c2ccccc2)c1=S`, 7.13 µM. The same measure, in the same setting: for `CCN=c1scc(C)n1/N=C/c1ccc(O)c(O)c1O` the value was 15.1 µM; for `Cc1ccccc1-n1sc2cc(F)ccc2c1=O`, 13 µM; for `COCCCNC(=O)c1ccc2c3c(onc13)-c1ccccc1C2=O`, 4.61 µM. On the same count and under the same terms, for `O=C(COc1ccccc1C(=O)N/N=C\c1ccc(O)c(O)c1)N/N=C/c1ccc(O)c(O)c1` the value was 3.24 µM; for `CC(=O)OCCCNc1cc(Sc2nc3ccccc3s2)c2nonc2c1[N+](=O)[O-]`, 8.45 µM. On to `O=C(O)C[C@@H]1C(=O)O[C@@H]2C(COC(=O)c3cc(O)c(O)c(O)c3)O[C@@H](OC(=O)c3cc(O)c(O)c(O)c3)[C@@H](OC(=O)c3cc(O)c(O)c4c3[C@H]1[C@H](O)C(=O)O4)[C@H]2OC(=O)c1cc(O)c(O)c(O)c1` (some centres not stated), for which the Ki was found to be 1.36 µM. The same measure, in the same setting: for `CCN1/C(=C/C(C)=C/c2sc3ccccc3[n+]2CC)Sc2ccccc21` the value was 7.85 µM. The same measure, in the same setting: then `CCC(=O)NC1=C(Cl)C(=O)C(NC(=O)CC)=C(Cl)C1=O`, with 0.68 µM; and `O=C1CCC(=O)N(O)CCCCCNC(=O)CCC(=O)N(O)CCCCCNC(=O)CCC(=O)N(O)CCCCCN1`, with 1.82 µM. Same read-out and setting: for `Cc1ccc(NC(=O)Cn2sc3nc(C)cc(C)c3c2=O)c(Cl)c1` the value was 0.71 µM. In turn, `CN(C)c1ncc(C2=C(Cl)C(=O)C(N3CCCC3)=C(Cl)C2=O)s1` yielded a Ki of 4.05 µM. On the same count and under the same terms, for `O=[N+]([O-])c1ccc(Sc2cccc[n+]2[O-])c2nonc12` the value was 1.07 µM. The compound `CN=c1scc(C)n1/N=C/c1ccc(O)c(O)c1O` displayed an inhibition constant (Ki) of 7.14 µM. Same read-out and setting: for `Cc1ccc(-n2sc3ccccc3c2=O)cc1S(=O)(=O)N1CCCCC1` the value was 1.62 µM. Still for that read-out and setting: then `COc1ccc(C2=CC(=O)C=CC2=O)cc1`, with 3 µM; and `CN(C)S(=O)(=O)c1cccc(-n2sc3ccccc3c2=O)c1`, with 1.24 µM; and `O=c1c2ccccc2sn1-c1ccccc1`, with 1.37 µM. Turning to `CCCNC(=O)Cn1sc2nc(C)cc(C)c2c1=O`, the Ki came to 1.42 µM. Same read-out and setting: for `COc1ccc(OC)c(CCNC(=O)Cn2sc3nc(C)cc(C)c3c2=O)c1` the value was 1.43 µM.
